From ChEMBL document CHEMBL1145498, “A systematic interaction map of validated kinase inhibitors with Ser/Thr kinases” (Proc Natl Acad Sci U S A, 2007)

Experiments:
[1] = target: Mitogen-activated protein kinase 3 (Homo sapiens, UniProt P27361)
[2] = target: Cyclin-dependent kinase-like 1 (Homo sapiens) (UniProt Q00532)
[3] = target: Serine/threonine-protein kinase VRK2 (Homo sapiens) (UniProt Q86Y07)
[4] = target: cAMP-dependent protein kinase catalytic subunit alpha (Homo sapiens) (UniProt P17612)
[5] = target: Serine/threonine-protein kinase PLK1 (Homo sapiens) (UniProt P53350)
Sequence of Serine/threonine-protein kinase PLK1 (Homo sapiens) (P53350 whole entry): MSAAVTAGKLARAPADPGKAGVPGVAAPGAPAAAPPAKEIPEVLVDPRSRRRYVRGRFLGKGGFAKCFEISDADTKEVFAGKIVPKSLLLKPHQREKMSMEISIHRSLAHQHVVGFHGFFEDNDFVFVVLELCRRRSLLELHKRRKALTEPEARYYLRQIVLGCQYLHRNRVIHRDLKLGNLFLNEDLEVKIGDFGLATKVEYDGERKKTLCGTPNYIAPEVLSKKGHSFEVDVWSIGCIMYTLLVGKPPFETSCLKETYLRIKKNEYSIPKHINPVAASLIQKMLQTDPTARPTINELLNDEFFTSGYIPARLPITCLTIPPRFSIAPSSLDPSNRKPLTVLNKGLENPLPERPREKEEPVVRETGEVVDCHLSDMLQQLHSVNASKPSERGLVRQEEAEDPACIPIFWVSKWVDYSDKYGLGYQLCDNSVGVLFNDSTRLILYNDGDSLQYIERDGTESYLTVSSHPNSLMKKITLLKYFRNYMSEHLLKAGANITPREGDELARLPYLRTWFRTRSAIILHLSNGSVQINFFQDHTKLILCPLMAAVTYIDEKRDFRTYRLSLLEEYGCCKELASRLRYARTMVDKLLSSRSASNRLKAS

[6] = target: T1, Serine/threonine-protein kinase Nek2 (Homo sapiens) (UniProt P51955)
T1 sequence (whole entry): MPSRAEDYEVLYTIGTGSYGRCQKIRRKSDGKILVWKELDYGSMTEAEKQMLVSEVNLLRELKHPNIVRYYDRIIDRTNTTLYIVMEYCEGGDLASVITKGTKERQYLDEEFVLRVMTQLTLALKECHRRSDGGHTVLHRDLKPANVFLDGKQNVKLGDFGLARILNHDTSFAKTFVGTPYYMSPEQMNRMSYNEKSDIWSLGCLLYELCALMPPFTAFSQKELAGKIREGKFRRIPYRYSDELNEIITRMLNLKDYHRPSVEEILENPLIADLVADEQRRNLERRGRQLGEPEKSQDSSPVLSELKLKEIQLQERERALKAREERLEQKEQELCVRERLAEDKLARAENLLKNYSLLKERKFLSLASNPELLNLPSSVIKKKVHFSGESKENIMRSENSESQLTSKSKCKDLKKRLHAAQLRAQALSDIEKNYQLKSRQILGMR

[7] = target: Serine/threonine-protein kinase pim-1 (Homo sapiens) (UniProt P11309)
Sequence of Serine/threonine-protein kinase pim-1 (Homo sapiens) (P11309 whole entry, looked up): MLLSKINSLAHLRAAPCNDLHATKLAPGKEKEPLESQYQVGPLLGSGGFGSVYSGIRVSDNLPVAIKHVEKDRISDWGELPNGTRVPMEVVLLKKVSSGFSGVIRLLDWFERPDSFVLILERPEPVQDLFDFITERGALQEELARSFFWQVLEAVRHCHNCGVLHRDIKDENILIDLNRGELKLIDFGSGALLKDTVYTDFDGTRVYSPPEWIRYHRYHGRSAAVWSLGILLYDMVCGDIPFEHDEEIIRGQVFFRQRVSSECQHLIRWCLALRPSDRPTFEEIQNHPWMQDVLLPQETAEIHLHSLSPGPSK

[8] = target: T2, Mitogen-activated protein kinase kinase kinase 5 (Homo sapiens) (UniProt Q99683)
T2 sequence (whole entry): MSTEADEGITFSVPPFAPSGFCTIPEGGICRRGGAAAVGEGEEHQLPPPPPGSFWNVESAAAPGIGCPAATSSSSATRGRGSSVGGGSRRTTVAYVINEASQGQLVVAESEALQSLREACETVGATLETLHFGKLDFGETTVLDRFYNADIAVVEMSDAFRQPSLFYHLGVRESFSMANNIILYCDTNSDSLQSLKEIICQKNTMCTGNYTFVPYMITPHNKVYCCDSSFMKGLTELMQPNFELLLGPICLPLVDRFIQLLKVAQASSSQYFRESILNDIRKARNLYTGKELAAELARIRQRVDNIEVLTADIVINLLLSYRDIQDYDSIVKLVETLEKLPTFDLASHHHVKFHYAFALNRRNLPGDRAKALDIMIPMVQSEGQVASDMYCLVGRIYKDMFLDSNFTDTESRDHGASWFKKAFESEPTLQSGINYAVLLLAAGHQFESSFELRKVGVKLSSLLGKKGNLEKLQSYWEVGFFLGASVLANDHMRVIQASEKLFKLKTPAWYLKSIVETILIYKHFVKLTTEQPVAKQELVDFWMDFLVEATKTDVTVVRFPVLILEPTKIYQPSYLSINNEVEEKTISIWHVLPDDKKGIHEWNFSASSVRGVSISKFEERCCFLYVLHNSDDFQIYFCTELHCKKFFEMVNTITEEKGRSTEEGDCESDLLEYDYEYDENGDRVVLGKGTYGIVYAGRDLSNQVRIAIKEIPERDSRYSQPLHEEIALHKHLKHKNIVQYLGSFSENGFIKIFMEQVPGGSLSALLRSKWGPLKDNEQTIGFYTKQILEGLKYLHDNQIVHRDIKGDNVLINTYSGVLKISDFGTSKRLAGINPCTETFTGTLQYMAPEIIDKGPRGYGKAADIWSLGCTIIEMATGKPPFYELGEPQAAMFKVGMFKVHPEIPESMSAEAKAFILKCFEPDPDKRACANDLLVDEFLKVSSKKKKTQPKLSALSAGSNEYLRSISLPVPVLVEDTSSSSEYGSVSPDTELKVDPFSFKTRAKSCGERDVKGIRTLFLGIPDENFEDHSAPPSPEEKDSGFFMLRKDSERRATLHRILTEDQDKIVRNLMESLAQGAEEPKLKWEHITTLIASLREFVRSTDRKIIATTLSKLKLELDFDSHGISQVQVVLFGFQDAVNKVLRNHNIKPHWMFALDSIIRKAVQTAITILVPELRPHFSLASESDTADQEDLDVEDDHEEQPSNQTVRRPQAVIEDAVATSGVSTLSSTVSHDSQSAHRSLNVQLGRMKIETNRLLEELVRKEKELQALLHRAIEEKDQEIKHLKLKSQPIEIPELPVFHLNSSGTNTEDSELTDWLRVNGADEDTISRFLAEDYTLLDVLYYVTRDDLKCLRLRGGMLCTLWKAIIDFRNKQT

[9] = target: Calcium/calmodulin-dependent protein kinase type II subunit gamma (Homo sapiens) (UniProt Q13555)
Sequence of Calcium/calmodulin-dependent protein kinase type II subunit gamma (Homo sapiens) (Q13555 whole entry): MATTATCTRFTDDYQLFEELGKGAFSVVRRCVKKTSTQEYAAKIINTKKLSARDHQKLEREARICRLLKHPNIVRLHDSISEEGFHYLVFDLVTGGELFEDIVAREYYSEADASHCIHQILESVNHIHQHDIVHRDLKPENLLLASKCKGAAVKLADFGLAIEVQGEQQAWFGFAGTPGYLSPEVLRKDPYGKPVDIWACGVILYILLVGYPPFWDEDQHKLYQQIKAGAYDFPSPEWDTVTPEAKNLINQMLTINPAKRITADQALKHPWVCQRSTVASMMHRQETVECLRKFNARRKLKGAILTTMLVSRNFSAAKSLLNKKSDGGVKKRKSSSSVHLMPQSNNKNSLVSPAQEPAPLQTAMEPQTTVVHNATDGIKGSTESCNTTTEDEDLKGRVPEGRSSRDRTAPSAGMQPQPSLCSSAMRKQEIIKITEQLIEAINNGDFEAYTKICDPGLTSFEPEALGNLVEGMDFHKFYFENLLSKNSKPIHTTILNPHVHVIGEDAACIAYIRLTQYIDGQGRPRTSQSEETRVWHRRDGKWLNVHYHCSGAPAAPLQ

Sequence of Cyclin-dependent kinase-like 1 (Homo sapiens) (Q00532 whole entry): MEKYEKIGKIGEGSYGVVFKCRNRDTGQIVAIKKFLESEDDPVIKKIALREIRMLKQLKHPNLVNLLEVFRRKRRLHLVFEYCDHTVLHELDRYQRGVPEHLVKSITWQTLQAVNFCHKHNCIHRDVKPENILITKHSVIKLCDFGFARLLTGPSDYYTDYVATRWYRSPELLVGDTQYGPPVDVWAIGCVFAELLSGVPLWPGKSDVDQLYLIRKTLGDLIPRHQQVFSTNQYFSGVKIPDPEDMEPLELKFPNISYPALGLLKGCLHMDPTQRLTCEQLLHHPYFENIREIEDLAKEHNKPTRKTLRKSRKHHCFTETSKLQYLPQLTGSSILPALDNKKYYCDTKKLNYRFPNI
Sequence of Mitogen-activated protein kinase 3 (P27361 whole entry): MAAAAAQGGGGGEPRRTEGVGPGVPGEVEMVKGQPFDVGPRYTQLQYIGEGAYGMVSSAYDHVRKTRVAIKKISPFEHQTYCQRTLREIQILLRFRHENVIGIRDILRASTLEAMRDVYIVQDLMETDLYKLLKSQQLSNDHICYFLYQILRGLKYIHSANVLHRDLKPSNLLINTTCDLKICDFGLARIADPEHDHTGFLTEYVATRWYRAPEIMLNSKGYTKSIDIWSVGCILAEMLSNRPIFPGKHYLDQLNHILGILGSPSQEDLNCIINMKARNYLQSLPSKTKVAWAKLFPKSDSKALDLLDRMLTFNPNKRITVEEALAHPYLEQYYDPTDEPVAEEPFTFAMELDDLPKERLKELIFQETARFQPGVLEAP
Sequence of Serine/threonine-protein kinase VRK2 (Homo sapiens) (Q86Y07 whole entry): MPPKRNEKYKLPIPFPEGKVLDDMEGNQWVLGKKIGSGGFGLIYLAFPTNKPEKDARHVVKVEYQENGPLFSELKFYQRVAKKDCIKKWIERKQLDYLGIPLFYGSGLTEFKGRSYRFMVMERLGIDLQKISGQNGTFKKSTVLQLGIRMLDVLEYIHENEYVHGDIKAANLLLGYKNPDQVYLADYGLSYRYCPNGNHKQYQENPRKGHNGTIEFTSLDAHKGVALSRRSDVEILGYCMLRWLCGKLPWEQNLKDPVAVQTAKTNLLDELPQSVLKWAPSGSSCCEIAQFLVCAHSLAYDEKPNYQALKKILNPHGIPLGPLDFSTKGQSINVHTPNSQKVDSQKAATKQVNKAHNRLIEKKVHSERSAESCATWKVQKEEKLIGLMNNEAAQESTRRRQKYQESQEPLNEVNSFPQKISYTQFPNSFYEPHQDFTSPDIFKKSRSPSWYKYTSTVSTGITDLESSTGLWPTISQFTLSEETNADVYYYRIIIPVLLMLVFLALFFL

ΔTm [1] | ΔTm [2] | ΔTm [3] | ΔTm [4] | ΔTm [5] | ΔTm [6] | ΔTm [7] | ΔTm [8] | ΔTm [9] | Compound
0.7 °C | 1.5 °C | 0.3 °C | 0.5 °C | 0.1 °C | 0.7 °C | 0.1 °C | -1 °C | 4 °C | O=C1Nc2cc(Br)ccc2/C1=C1/Nc2ccccc2/C1=N\O
-0.3 °C | 0 °C | 0.5 °C | 0 °C | 1.6 °C | 1 °C | 0 °C | 0.3 °C | 0.3 °C | C#Cc1cccc(Nc2ncnc3cc(OCCOC)c(OCCOC)cc23)c1
0.8 °C | -0.3 °C | 0.2 °C | 0.6 °C | 0.7 °C | 0.7 °C | 2.1 °C | -0.2 °C | -0.2 °C | N#C/C(=C\c1ccc(O)c(O)c1)C(=O)NCc1ccccc1
-0.2 °C | -0.2 °C | 0.9 °C | 0.1 °C | 1 °C | 0.2 °C | 0 °C | 1 °C | 0.5 °C | COc1cc2ncnc(Nc3cccc(O)c3)c2cc1OC
0.2 °C | -0.1 °C | 0.1 °C | 1 °C | 1.9 °C | 0.3 °C | -0.1 °C | 0.1 °C | -0.1 °C | CCOc1cc(/C=C(\C#N)C(N)=O)cc(CSc2ccccc2)c1O
0.8 °C | 6.1 °C | 4.2 °C | 4 °C | 1.6 °C | 2.8 °C | 4.5 °C | 5.6 °C | 5.3 °C | O=C1Nc2ccccc2/C1=C1/Nc2ccccc2/C1=N\O
0.4 °C | -0.1 °C | 1.2 °C | 0.3 °C | 1.8 °C | 0.9 °C | 0.1 °C | 0.2 °C | 0.3 °C | CC(C)n1cnc2c(NCc3ccccc3)nc(NCCCO)nc21
0.9 °C | 0.7 °C | 2.6 °C | 2.3 °C | 1.6 °C | 2.3 °C | 3.6 °C | 8.8 °C | 0.8 °C | O=C1c2ccccc2-c2n[nH]c3cccc1c23
-0.6 °C | -0.3 °C | 0.4 °C | 1.1 °C | 0.7 °C | 2.1 °C | 0.2 °C | 0.3 °C | 0.4 °C | Cc1cc2ncc(-c3ccccc3)nc2cc1C
1.1 °C | 0.4 °C | 0.3 °C | 1.6 °C | 0.5 °C | 2.2 °C | 3 °C | 0.9 °C | -0.1 °C | O=C1Cc2c([nH]c3ccc([N+](=O)[O-])cc23)-c2ccccc2N1

Continued, compound first:

Compound | ΔTm [1] | ΔTm [2] | ΔTm [3] | ΔTm [4] | ΔTm [5] | ΔTm [6] | ΔTm [7] | ΔTm [8] | ΔTm [9]
O=C1NC(=O)C(c2c[nH]c3ccccc23)=C1c1c[nH]c2ccccc12 | 0.1 °C | 0.6 °C | 1 °C | 1.4 °C | 0.6 °C | 1.9 °C | 5.9 °C | 0.2 °C | 2.2 °C
O=C(O)c1cc(NCc2cc(O)ccc2O)ccc1O | -0.1 °C | -0.4 °C | -0.2 °C | -0.2 °C | 0.3 °C | 0.7 °C | 0 °C | -0.1 °C | 0 °C
COc1cc2ncnc(Nc3ccc(F)c(Cl)c3)c2cc1OCCCN1CCOCC1 | -0.2 °C | 0.2 °C | 0.3 °C | 1.1 °C | 1.2 °C | 1.1 °C | 3.4 °C | 0.1 °C | 0.4 °C
Nc1ncnc2c1c(I)cn2[C@@H]1O[C@H](CO)[C@@H](O)[C@H]1O | 1.5 °C | 0.2 °C | 0.1 °C | 1.3 °C | 1 °C | 0.4 °C | 1.1 °C | 0.9 °C | 0.6 °C
Nc1nc(Nc2ccc(S(N)(=O)=O)cc2)nn1C(=S)Nc1c(F)cccc1F | 3.6 °C | 4.3 °C | 2 °C | 4.1 °C | 4.3 °C | 2.5 °C | 0.4 °C | 16.8 °C | 4.2 °C
Oc1ccc(-c2nc(-c3ccc(F)cc3)c(-c3ccncc3)[nH]2)cc1 | 0.4 °C | -0.2 °C | 0.7 °C | 2.6 °C | 0.1 °C | 0.2 °C | -1.4 °C | 0.3 °C | 0.6 °C
CC(C)(C)c1nc2c3ccc(F)cc3c3c(=O)[nH]ccc3c2[nH]1 | 3.1 °C | 0.3 °C | 1.8 °C | 2.6 °C | 11.9 °C | 0.7 °C | 3.7 °C | 4.9 °C | 4.5 °C
CN(C)CC1CCn2c(c(C3=C(c4c[nH]c5ccccc45)C(=O)NC3=O)c3ccccc32)C1 (stereo unspecified) | -0.2 °C | 0.5 °C | 0.7 °C | 2.2 °C | -0.2 °C | 1 °C | 4.9 °C | 0 °C | 1.3 °C
O=c1cc(-c2ccc(O)cc2)oc2cc(O)cc(O)c12 | 0.5 °C | 1.4 °C | 0.6 °C | 1.7 °C | 2 °C | 1.4 °C | 3.7 °C | 1.1 °C | -11.5 °C
Nc1nccc(-c2c(-c3ccc(F)cc3)ncn2C2CCNCC2)n1 | 0.5 °C | 0.4 °C | 0.2 °C | 0.7 °C | 0.1 °C | 1.1 °C | -0.1 °C | 0.3 °C | 0.1 °C
C[C@@H](N)[C@H]1CC[C@H](C(=O)Nc2ccncc2)CC1 | 0.1 °C | -0.1 °C | 0.5 °C | 0.4 °C | -0.2 °C | -0.1 °C | 0 °C | 1.1 °C | 1 °C
O=c1c(-c2ccc(F)cc2)c(-c2ccncc2)[nH]n1-c1ccc(Cl)cc1 | 1.2 °C | 0.4 °C | 0.7 °C | 1.5 °C | 0.3 °C | 1.4 °C | -0.1 °C | 0.6 °C | 0 °C
O=c1c(-c2ccc(O)cc2)coc2cc(O)cc(O)c12 | 0.6 °C | -0.1 °C | 0.1 °C | 2.1 °C | 1.4 °C | -0.1 °C | 3.3 °C | 0.6 °C | 0 °C
CC(C)N(CCO)c1nc(Nc2cccc(Cl)c2)c2ncn(C(C)C)c2n1 | 1.7 °C | 0.3 °C | 2.7 °C | 1.6 °C | 3.3 °C | 0.7 °C | -1.1 °C | 0.4 °C | 0.6 °C
